{
  "source": "patent US20070072939A1",
  "about": "“Cannabinoid active pharmaceutical ingredient for improved dosage forms” (Euro-Celtique, S.A., priority 2005, published 2007)",
  "key": {"[1]": {"assay": "stability of the substance to air, light and temperature (appearance)"}, "[2]": {"settings": "sufficiently purified trans-(+)-Δ^9-THC; cited from earlier work"}, "[3]": {"settings": "delivery by inhalation (e.g., by smoking); cited from earlier work"}, "[4]": {"settings": "purified resinous material, background statement; cited from earlier work"}},
  "data": [
    {"compound": "trans-(±)-Δ^9-tetrahydrocannabinol [crystalline trans-(±)-Δ^9-THC]", "values": [
      {"measurement": "stability", "setting": "[1]; 25° C. in the presence of air and laboratory lighting, Example 12 material", "value": "stable"},
      {"measurement": "retention of white appearance", "setting": "[1]; 25° C., Example 10 material, expected", "value": "retain that white appearance for at least three days"},
      {"measurement": "appearance after storage", "setting": "[1]; held for three days at room temperature in the presence of air and laboratory lighting", "value": "remained white"}
    ]},
    {"compound": "CCCCCc1cc(O)c2c(c1)OC(C)(C)[C@H]1CCC(C)=C[C@H]21", "note": "[trans-(+)-Δ^9-THC, trans-(+)-Δ^9-tetrahydrocannabinol]", "values": [
      {"measurement": "activity relative to the trans-(−)-Δ^9-THC enantiomer", "setting": "[2]", "value": "~1", "unit": "%"}
    ]},
    {"compound": "CCCCCc1cc(O)c2c(c1)OC(C)(C)[C@@H]1CCC(C)=C[C@@H]21", "note": "[trans-(−)-Δ^9-THC, (−)-6a, 10a-trans-Δ^9-tetrahydrocannabinol]", "values": [
      {"measurement": "onset of pharmacological activity", "setting": "[3]", "value": "≤ 10", "unit": "minutes"},
      {"measurement": "chemical stability to light, oxygen and heat", "setting": "[4]", "value": "chemically unstable to light, oxygen, and heat"}
    ]}
  ]
}
